Test results from patent US11459315B2, “Modulators of methyl modifying enzymes, compositions and uses thereof” (Constellation Pharmaceuticals, Inc., priority 2017, dated 2022).
Where two headings read alike, the source gives them in different places.

Experiments:
[1] = tested on: H3K27me3 mark in HeLa cells (EZH2); experiment: H3K27me3 Alpha Hela Assay (AlphaLISA); type: cell-based; conditions: Homo sapiens, HeLa, 72 h, HeLa cells, 72 hrs; read-out: EZH2 Cell H3K27me3 Alpha HeLa (EC50 K27me3)
Method in brief: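 HeLa cells (1,000/well) treated with ten 3-fold compound doses for 72 h at 37 °C; lysates extracted and H3K27me3 detected by AlphaLISA with anti-K27me3 acceptor beads, biotinylated anti-H3 (3 nM) and streptavidin donor beads. EC50 from DMSO-normalized dose-response curves; duplicate plate assessed viability.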

PRC2 containing wt EZH2 = PRC2 containing wt EZH2 (Homo sapiens (Human), UniProt Q15910); experiment: EZH2 biochemical assay (IC50), 3H-SAM incorporation into biotinylated H3 peptide; conditions: 30 pM PRC2 containing wt EZH2, 3-5 h pre-incubation
Sequence of PRC2 containing wt EZH2 (Q15910 whole entry): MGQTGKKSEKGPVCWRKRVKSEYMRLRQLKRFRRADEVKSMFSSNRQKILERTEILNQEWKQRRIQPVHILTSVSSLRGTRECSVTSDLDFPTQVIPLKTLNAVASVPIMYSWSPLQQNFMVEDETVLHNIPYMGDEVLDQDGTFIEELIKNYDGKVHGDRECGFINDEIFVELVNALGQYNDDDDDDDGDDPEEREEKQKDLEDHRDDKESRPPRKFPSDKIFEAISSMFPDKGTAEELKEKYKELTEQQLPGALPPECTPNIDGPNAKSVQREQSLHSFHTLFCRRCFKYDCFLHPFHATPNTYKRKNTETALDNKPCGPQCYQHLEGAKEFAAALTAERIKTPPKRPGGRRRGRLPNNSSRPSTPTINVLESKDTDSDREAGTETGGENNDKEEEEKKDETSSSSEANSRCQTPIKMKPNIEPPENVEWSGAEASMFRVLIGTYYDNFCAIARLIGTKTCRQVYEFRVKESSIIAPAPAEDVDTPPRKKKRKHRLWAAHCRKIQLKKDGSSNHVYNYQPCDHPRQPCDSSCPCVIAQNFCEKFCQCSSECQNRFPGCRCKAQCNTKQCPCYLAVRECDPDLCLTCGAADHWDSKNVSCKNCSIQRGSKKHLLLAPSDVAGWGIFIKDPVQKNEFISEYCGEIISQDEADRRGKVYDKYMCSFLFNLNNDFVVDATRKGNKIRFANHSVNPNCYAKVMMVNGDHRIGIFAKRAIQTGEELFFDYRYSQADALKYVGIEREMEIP
Sequence of PRC2 containing wt EZH2 (O75530 whole entry partner): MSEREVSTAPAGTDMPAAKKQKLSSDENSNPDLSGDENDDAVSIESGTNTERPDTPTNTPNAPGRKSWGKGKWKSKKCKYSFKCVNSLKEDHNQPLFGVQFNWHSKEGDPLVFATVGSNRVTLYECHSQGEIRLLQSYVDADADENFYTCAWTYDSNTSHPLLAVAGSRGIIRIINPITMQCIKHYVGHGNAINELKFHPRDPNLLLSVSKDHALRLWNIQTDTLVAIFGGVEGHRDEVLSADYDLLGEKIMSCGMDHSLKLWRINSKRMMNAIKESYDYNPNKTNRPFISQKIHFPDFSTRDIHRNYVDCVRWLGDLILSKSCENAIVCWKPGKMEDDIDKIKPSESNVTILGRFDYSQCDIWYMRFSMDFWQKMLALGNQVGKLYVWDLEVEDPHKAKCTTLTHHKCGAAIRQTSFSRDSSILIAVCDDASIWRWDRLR
Sequence of PRC2 containing wt EZH2 (Q15022 whole entry partner): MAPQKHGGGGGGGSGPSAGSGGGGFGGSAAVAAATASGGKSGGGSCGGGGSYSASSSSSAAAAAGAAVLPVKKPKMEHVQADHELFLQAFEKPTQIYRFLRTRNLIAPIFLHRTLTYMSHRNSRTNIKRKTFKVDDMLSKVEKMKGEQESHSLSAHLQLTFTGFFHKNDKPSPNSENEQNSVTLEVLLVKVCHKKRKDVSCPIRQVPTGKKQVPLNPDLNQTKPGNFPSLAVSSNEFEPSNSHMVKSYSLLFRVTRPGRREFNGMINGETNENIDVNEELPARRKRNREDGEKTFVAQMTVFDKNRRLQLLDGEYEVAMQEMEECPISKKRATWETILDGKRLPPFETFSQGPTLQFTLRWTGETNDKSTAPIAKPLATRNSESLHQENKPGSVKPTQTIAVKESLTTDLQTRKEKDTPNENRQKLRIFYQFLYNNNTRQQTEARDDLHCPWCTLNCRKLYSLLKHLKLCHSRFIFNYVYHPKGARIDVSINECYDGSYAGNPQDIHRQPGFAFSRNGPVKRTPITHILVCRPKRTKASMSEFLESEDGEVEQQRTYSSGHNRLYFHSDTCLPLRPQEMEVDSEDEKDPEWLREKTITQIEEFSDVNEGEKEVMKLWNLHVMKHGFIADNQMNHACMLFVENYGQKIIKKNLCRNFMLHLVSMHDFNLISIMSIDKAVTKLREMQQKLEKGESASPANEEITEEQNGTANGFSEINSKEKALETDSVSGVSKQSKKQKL
Sequence of PRC2 containing wt EZH2 (Q09028 whole entry partner): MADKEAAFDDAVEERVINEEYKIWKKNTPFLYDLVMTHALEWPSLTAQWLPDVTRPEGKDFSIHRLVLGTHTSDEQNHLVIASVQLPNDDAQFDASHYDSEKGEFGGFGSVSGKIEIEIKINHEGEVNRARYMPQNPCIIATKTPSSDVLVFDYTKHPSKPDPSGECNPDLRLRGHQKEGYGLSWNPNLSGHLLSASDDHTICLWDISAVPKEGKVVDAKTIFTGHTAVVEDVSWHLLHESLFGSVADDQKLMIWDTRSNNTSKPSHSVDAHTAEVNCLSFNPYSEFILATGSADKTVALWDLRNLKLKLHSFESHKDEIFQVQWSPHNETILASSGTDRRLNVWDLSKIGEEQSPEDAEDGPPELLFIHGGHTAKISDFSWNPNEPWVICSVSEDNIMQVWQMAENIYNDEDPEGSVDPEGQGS
Sequence of PRC2 containing wt EZH2 (Q6ZN18 whole entry partner): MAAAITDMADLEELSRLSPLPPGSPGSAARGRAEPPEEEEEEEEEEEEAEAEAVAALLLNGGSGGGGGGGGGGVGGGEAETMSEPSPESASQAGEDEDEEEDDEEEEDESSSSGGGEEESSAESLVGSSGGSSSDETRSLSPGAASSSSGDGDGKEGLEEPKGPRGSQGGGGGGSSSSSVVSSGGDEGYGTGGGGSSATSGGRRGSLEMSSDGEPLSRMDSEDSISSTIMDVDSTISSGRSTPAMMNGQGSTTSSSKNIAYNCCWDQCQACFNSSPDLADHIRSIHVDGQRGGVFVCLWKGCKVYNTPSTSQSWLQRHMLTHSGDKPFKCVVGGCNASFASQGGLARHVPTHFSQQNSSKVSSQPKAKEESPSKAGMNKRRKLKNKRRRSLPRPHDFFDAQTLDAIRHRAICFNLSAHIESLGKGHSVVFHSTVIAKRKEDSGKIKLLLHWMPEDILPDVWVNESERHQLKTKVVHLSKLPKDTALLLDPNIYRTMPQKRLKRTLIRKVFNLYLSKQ
Method in brief: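 Activity was measured as ³H-methyl transfer to a biotinylated H3K27me1 peptide over 18-22 h at room temperature, with capture on streptavidin flash plates. The 30 pM wt-EZH2 PRC2 complex was first pre-incubated 3-5 h with compound, 450 nM SAM/450 nM ³H-SAM and 2 µM H3K27me3 activator (pH 8.5, 0.8% DMSO). Four-parameter fits gave IC50.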

SMILES	EC50 [1]	IC50 (PRC2 containing wt EZH2; EZH2 (IC50))	IC50 (PRC2 containing wt EZH2; read-out: EZH2 (IC50))
CSc1cc(C)[nH]c(=O)c1CNC(=O)c1c(C)n([C@H](C)C2CCN(CC(C)(C)O)CC2)c2ccccc12 [Example 11, (R)-1-(1-(1-(2-hydroxy-2-methylpropyl)piperidin-4-yl)ethyl)-2-methyl-N-((6-methyl-4-(methylthio)-2-oxo-1,2-dihydropyridin-3-yl)methyl)-1H-indole-3-carboxamide]	10 to 100 nM	< 0.5 nM	–
CSc1cc(C)[nH]c(=O)c1CNC(=O)c1c(C)n([C@H](C)C2CCN(CC(F)(F)F)CC2)c2ccccc12 [Example 12, (R)-2-methyl-N-((6-methyl-4-(methylthio)-2-oxo-1,2-dihydropyridin-3-yl)methyl)-1-(1-(1-(2,2,2-trifluoroethyl)piperidin-4-yl)ethyl)-1H-indole-3-carboxamide]	< 10 nM	< 0.5 nM	–
CSc1cc(C)[nH]c(=O)c1CNC(=O)c1c(C)n([C@H](C)C2CCOCC2)c2ccccc12 [Example 13, (R)-2-methyl-N-((6-methyl-4-(methylthio)-2-oxo-1,2-dihydropyridin-3-yl)methyl)-1-(1-(tetrahydro-2H-pyran-4-yl)ethyl)-1H-indole-3-carboxamide]	< 10 nM	< 0.5 nM	–
CNC1COC([C@@H](C)n2c(C)c(C(=O)NCc3c(SC)cc(C)[nH]c3=O)c3ccccc32)OC1 (stereo partly drawn) [Example 17, (R)-2-methyl-N-((6-methyl-4-(methylthio)-2-oxo-1,2-dihydropyridin-3-yl)methyl)-1-(1-(5-(methylamino)-1,3-dioxan-2-yl)ethyl)-1H-indole-3-carboxamide]	< 10 nM	–	< 0.5 nM
CSc1cc(C)[nH]c(=O)c1CNC(=O)c1c(C)n([C@H](C)C2CCN(CC(F)(F)F)CC2)c2ncccc12 [Example 25, (R)-2-methyl-N-((6-methyl-4-(methylthio)-2-oxo-1,2-dihydropyridin-3-yl)methyl)-1-(1-(1-(2,2,2-trifluoroethyl)piperidin-4-yl)ethyl)-1H-pyrrolo[2,3-b]pyridine-3-carboxamide]	< 10 nM	< 0.5 nM	–
CSc1cc(C)[nH]c(=O)c1CNC(=O)c1c(C)n([C@H](C)C2CCN(C3CC3)CC2)c2ncccc12 [Example 26, (R)-1-(1-(1-cyclopropylpiperidin-4-yl)ethyl)-2-methyl-N-((6-methyl-4-(methylthio)-2-oxo-1,2-dihydropyridin-3-yl)methyl)-1H-pyrrolo[2,3-b]pyridine-3-carboxamide]	< 10 nM	< 0.5 nM	–
CSc1cc(C)[nH]c(=O)c1CNC(=O)c1c(C)n([C@H](C)C2CCC(N3CC(OC(F)F)C3)CC2)c2cc(F)ccc12 (stereo partly drawn) [Example 29, 1-((R)-1-(4-(3-(difluoromethoxy)azetidin-1-yl)cyclohexyl)ethyl)-6-fluoro-2-methyl-N-((6-methyl-4-(methylthio)-2-oxo-1,2-dihydropyridin-3-yl)methyl)-1H-indole-3-carboxamide]	< 10 nM	–	< 0.5 nM
CSc1cc(C)[nH]c(=O)c1CNC(=O)c1c(C)n([C@H](C)CO)c2ccccc12 [Example 31, (R)-1-(1-hydroxypropan-2-yl)-2-methyl-N-((6-methyl-4-(methylthio)-2-oxo-1,2-dihydropyridin-3-yl)methyl)-1H-indole-3-carboxamide]	> 100 nM	–	> 5 nM
COC[C@@H](C)n1c(C)c(C(=O)NCc2c(SC)cc(C)[nH]c2=O)c2ccccc21 [Example 32, (R)-1-(1-methoxypropan-2-yl)-2-methyl-N-((6-methyl-4-(methylthio)-2-oxo-1,2-dihydropyridin-3-yl)methyl)-1H-indole-3-carboxamide]	10 to 100 nM	< 0.5 nM	–
CCOC[C@@H](C)n1c(C)c(C(=O)NCc2c(SC)cc(C)[nH]c2=O)c2ccccc21 [Example 33, (R)-1-(1-ethoxypropan-2-yl)-2-methyl-N-((6-methyl-4-(methylthio)-2-oxo-1,2-dihydropyridin-3-yl)methyl)-1H-indole-3-carboxamide]	10 to 100 nM	0.5 to 5 nM	–
CSc1cc(C)[nH]c(=O)c1CNC(=O)c1c(C)n([C@@H](C)c2cnc(C)nc2)c2ccccc12 [Example 34, (S)-2-methyl-N-((6-methyl-4-(methylthio)-2-oxo-1,2-dihydropyridin-3-yl)methyl)-1-(1-(2-methylpyrimidin-5-yl)ethyl)-1H-indole-3-carboxamide]	> 100 nM	–	> 5 nM
CSc1cc(C)[nH]c(=O)c1CNC(=O)c1c(C)n([C@H](C)c2cnc(C)nc2)c2ccccc12 [Example 35, (R)-2-methyl-N-((6-methyl-4-(methylthio)-2-oxo-1,2-dihydropyridin-3-yl)methyl)-1-(1-(2-methylpyrimidin-5-yl)ethyl)-1H-indole-3-carboxamide]	> 100 nM	–	> 5 nM
CSc1cc(C)[nH]c(=O)c1CNC(=O)c1c(C)n([C@H](C)[C@H]2CCNC[C@@H]2F)c2ccccc12 [Example 37, 1-((R)-1-((3R,4R)-3-fluoropiperidin-4-yl)ethyl)-2-methyl-N-((6-methyl-4-(methylthio)-2-oxo-1,2-dihydropyridin-3-yl)methyl)-1H-indole-3-carboxamide]	10 to 100 nM	< 0.5 nM	–
CSc1cc(C)[nH]c(=O)c1CNC(=O)c1c(C)n([C@H](C)C2CCNC[C@H]2F)c2ccccc12 (stereo partly drawn) [Example 38, 1-((1R)-1-((3S)-3-fluoropiperidin-4-yl)ethyl)-2-methyl-N-((6-methyl-4-(methylthio)-2-oxo-1,2-dihydropyridin-3-yl)methyl)-1H-indole-3-carboxamide]	10 to 100 nM	< 0.5 nM	–
CSc1cc(C)[nH]c(=O)c1CNC(=O)c1c(C)n([C@H](C)C2CCN(C#N)CC2)c2ccccc12 [Example 39, (R)-1-(1-(1-cyanopiperidin-4-yl)ethyl)-2-methyl-N-((6-methyl-4-(methylthio)-2-oxo-1,2-dihydropyridin-3-yl)methyl)-1H-indole-3-carboxamide]	10 to 100 nM	< 0.5 nM	–
CSc1cc(C)[nH]c(=O)c1CNC(=O)c1c(C)n([C@H](C)C2CCC(O)CC2)c2nc(C)ccc12 (stereo partly drawn) [Example 40, 1-((1R)-1-(4-hydroxycyclohexyl)ethyl)-2,6-dimethyl-N-((6-methyl-4-(methylthio)-2-oxo-1,2-dihydropyridin-3-yl)methyl)-1H-pyrrolo[2,3-b]pyridine-3-carboxamide]	> 100 nM	0.5 to 5 nM	–
CSc1cc(C)[nH]c(=O)c1CNC(=O)c1c(C)n([C@H](C)[C@H]2CCN(C)C[C@@H]2F)c2ccccc12 [Example 42, 1-((R)-1-((3R,4R)-3-fluoro-1-methylpiperidin-4-yl)ethyl)-2-methyl-N-((6-methyl-4-(methylthio)-2-oxo-1,2-dihydropyridin-3-yl)methyl)-1H-indole-3-carboxamide]	< 10 nM	< 0.5 nM	–
CSc1cc(C)[nH]c(=O)c1CNC(=O)c1c(C)n([C@H](C)C2CCN(C)C[C@H]2F)c2ccccc12 (stereo partly drawn) [Example 43, 1-((1R)-1-((3S)-3-fluoro-1-methylpiperidin-4-yl)ethyl)-2-methyl-N-((6-methyl-4-(methylthio)-2-oxo-1,2-dihydropyridin-3-yl)methyl)-1H-indole-3-carboxamide]	10 to 100 nM	< 0.5 nM	–
